Source: US10670605B2, “Cysteine reactive probes and uses thereof” (The Scripps Research Institute, priority 2015, dated 2020)

Legend:
Test in all cases: Competitive isoTOP-ABPP, cell lysates
Assay type in all cases: binding
PDIA6 C55 (Q15084) = target: T1, PDIA6 C55 (Q15084) (Homo sapiens, UniProt Q15084); conditions: for R value (DMSO/fragment) / isoTOP-ABPP ratio Q15084_C55: 500 μM; for isoTOP-ABPP reactivity profile ratio, Q15084_C55 / isoTOP-ABPP reactivity ratio, Q15084_C55: 500 μm
T1 sequence (Q15084 20-440): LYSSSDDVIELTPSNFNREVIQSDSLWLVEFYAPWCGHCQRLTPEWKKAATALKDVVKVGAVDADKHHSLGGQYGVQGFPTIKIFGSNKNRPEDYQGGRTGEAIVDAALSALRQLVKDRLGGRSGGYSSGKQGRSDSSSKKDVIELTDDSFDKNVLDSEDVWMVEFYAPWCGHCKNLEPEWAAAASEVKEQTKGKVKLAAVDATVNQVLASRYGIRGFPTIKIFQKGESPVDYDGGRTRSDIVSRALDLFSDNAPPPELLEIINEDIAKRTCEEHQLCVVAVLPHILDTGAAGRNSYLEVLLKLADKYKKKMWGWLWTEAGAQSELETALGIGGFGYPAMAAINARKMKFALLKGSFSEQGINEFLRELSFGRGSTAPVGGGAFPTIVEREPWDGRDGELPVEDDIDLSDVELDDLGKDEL

ADA C75 (P00813) = target: T2, ADA C75 (P00813) (Homo sapiens, UniProt P00813); conditions: for isoTOP-ABPP ratio (reactivity profile), P00813_C75: 500 μm in-vitro ramos
T2 sequence (P00813 1-363): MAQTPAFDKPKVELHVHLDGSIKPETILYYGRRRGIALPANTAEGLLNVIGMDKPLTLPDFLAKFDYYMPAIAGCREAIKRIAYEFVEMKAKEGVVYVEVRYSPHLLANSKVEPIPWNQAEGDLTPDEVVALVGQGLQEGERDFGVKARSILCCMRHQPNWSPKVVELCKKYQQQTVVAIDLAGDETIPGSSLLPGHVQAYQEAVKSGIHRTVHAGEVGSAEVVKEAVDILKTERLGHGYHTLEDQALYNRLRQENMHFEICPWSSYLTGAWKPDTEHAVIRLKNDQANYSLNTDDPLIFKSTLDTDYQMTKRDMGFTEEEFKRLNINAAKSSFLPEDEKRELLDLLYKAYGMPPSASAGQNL

PCK2 C306 (Q16822) = target: T3, PCK2 C306 (Q16822) (Homo sapiens, UniProt Q16822); conditions: for isoTOP-ABPP reactivity profile ratio, Q16822_C306 / isoTOP-ABPP reactivity ratio, Q16822_C306: 500 μm; for isoTOP-ABPP ratio, Q16822_C306: 500 μM, invitro
T3 sequence (Q16822 33-640): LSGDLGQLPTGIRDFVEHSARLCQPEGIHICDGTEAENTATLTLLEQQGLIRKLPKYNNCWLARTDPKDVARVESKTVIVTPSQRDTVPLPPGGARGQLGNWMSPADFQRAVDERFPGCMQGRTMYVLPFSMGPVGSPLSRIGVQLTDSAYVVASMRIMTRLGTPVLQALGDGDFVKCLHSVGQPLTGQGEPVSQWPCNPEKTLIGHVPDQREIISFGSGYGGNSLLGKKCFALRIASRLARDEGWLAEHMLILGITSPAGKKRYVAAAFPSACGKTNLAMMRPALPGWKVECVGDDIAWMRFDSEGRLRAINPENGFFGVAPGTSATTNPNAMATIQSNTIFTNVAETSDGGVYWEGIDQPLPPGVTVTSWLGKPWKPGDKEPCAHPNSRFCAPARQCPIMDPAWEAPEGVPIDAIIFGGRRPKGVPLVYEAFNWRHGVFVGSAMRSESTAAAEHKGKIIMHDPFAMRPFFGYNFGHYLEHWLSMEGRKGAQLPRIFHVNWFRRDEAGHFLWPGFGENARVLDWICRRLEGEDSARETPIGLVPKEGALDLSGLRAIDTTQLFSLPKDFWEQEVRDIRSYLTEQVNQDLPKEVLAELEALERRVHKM

In the case of `COc1ccc2c(c1)CCCN2C(=O)CCl` [compound 2], the “R value (DMSO/fragment)” value (PDIA6 C55 (Q15084); in vitro, MDA-MB-231) is reported as 6.3, the “R value (DMSO/fragment)” value (PDIA6 C55 (Q15084); invitro, ramos) is reported as 7.1 and the “R value (DMSO/fragment)” value (ADA C75 (P00813); 500 μM, invitro, ramos) is reported as 7.3.

In the case of `N#C/C(=C\c1cc(C(F)(F)F)cc(C(F)(F)F)c1)C(N)=O` [compound 23], the “isoTOP-ABPP ratio (reactivity profile), Q16822_C306” value (PCK2 C306 (Q16822); 500 μm in-vitro ramos_231) is reported as 3.0, the “isoTOP-ABPP ratio (reactivity profile), Q15084_C55” value (PDIA6 C55 (Q15084); 500 μm in-vitro ramos) is reported as 1.0 and the “isoTOP-ABPP ratio (reactivity profile), Q15084_C55” value (PDIA6 C55 (Q15084); 500 μm in-vitro ramos_231) is reported as 0.8. For the same molecule, the “isoTOP-ABPP ratio (reactivity profile), P00813_C75” value (ADA C75 (P00813)) was 1.1.

In the case of `C=CC(=O)N1CCC(Cc2ccccc2)CC1` [compound 53], the “isoTOP-ABPP reactivity profile ratio, Q16822_C306” value (PCK2 C306 (Q16822); in-vitro_ramos_231) is reported as 1.3, the “isoTOP-ABPP reactivity profile ratio, Q15084_C55” value (PDIA6 C55 (Q15084); in-vitro_ramos) is reported as 1.0 and the “isoTOP-ABPP reactivity profile ratio, Q15084_C55” value (PDIA6 C55 (Q15084); in-vitro_ramos_231) is reported as 0.9.

For `C=CC(=O)Nc1cc(F)c(N2CCN(C(=O)OC(C)(C)C)CC2)c(F)c1` [compound 38], the “isoTOP-ABPP reactivity ratio, Q16822_C306” value (PCK2 C306 (Q16822); in-vitro_ramos_231) was 1.0, the “isoTOP-ABPP reactivity ratio, Q15084_C55” value (PDIA6 C55 (Q15084); in-vitro_ramos) was 1.3 and the “isoTOP-ABPP reactivity ratio, Q15084_C55” value (PDIA6 C55 (Q15084); in-vitro_ramos_231) was 1.0. For the same molecule, the “isoTOP-ABPP reactivity ratio, P00813_C75” value (ADA C75 (P00813); 500 μm, in-vitro_ramos) was 2.3.

In the case of `C=CC(=O)Nc1cc(C)c(Br)cc1C` [compound 40], the “isoTOP-ABPP reactivity ratio, Q15084_C55” value (PDIA6 C55 (Q15084); in-vitro_ramos_231) is reported as 0.8 and the “isoTOP-ABPP reactivity ratio, P00813_C75” value (ADA C75 (P00813); 500 μm, in-vitro_ramos) is reported as 0.9.

With `O=C(CCl)NC(=O)NC12CC3CC(CC(C3)C1)C2` [compound 12] the “isoTOP-ABPP ratio, Q16822_C306” value (PCK2 C306 (Q16822); 231) was 1.5, the “isoTOP-ABPP ratio, Q16822_C306” value (PCK2 C306 (Q16822); ramos) was 0.7 and the “isoTOP-ABPP ratio Q15084_C55” value (PDIA6 C55 (Q15084); invitro, 231) was 3.7. The “isoTOP-ABPP ratio Q15084_C55” value (PDIA6 C55 (Q15084); invitro, ramos) was 3.1 and the “isoTOP-ABPP ratio, P00813_C75” value (ADA C75 (P00813); 500 μM, invitro, ramos) was 0.7.

With `O=C(CCl)NC1C(O)OC(CO)C(O)C1O` (mixture of isomers) [compound 44] the “isoTOP-ABPP reactivity profile ratio, Q15084_C55” value (PDIA6 C55 (Q15084); in-vitro_ramos_231) was 1.0.

In the case of `C=CC(=O)N(Cc1cccnc1)c1cc(C(F)(F)F)cc(C(F)(F)F)c1` [compound 31], the “isoTOP-ABPP reactivity ratio, Q16822_C306” value (PCK2 C306 (Q16822); in-vitro_ramos) is reported as 1.2, the “isoTOP-ABPP reactivity ratio, Q16822_C306” value (PCK2 C306 (Q16822); in-vitro_ramos_231) is reported as 1.9 and the “isoTOP-ABPP reactivity ratio, Q15084_C55” value (PDIA6 C55 (Q15084); in-vitro_ramos) is reported as 1.1. The “isoTOP-ABPP reactivity ratio, Q15084_C55” value (PDIA6 C55 (Q15084); in-vitro_ramos_231) was 1.2 and the “isoTOP-ABPP reactivity ratio, P00813_C75” value (ADA C75 (P00813); 500 μm, in-vitro_ramos) was 0.8.

With `Cn1cc(S(=O)(=O)N2CCOCC2)cc1C(=O)NC(=O)CCl` [compound 11] the “isoTOP-ABPP ratio, Q16822_C306” value (PCK2 C306 (Q16822); 231) was 3.2, the “isoTOP-ABPP ratio, Q16822_C306” value (PCK2 C306 (Q16822); ramos) was 1.2 and the “isoTOP-ABPP ratio Q15084_C55” value (PDIA6 C55 (Q15084); invitro, 231) was 20.0. For the same molecule, the “isoTOP-ABPP ratio Q15084_C55” value (PDIA6 C55 (Q15084); invitro, ramos) was 20.0 and the “isoTOP-ABPP ratio, P00813_C75” value (ADA C75 (P00813); 500 μM, invitro, ramos) was 7.5.

With `O=C(CCl)NCCc1c[nH]c2ccccc12` [compound 13] the “isoTOP-ABPP ratio, Q16822_C306” value (PCK2 C306 (Q16822); 231) was 0.9, the “isoTOP-ABPP ratio, Q16822_C306” value (PCK2 C306 (Q16822); ramos) was 1.0 and the “isoTOP-ABPP ratio Q15084_C55” value (PDIA6 C55 (Q15084); invitro, 231) was 1.9. For the same molecule, the “isoTOP-ABPP ratio Q15084_C55” value (PDIA6 C55 (Q15084); invitro, ramos) was 1.1 and the “isoTOP-ABPP ratio, P00813_C75” value (ADA C75 (P00813); 500 μM, invitro, ramos) was 0.9.

For `O=C(CCl)N1CCN(CC(=O)N2CCOCC2)CC1` [compound 29], the “isoTOP-ABPP ratio (reactivity profile), Q16822_C306” value (PCK2 C306 (Q16822); 500 μm in-vitro ramos) was 0.5, the “isoTOP-ABPP ratio (reactivity profile), Q16822_C306” value (PCK2 C306 (Q16822); 500 μm in-vitro ramos_231) was 1.1 and the “isoTOP-ABPP ratio (reactivity profile), Q15084_C55” value (PDIA6 C55 (Q15084); 500 μm in-vitro ramos) was 1.3. For the same molecule, the “isoTOP-ABPP ratio (reactivity profile), Q15084_C55” value (PDIA6 C55 (Q15084); 500 μm in-vitro ramos_231) was 1.0.

In the case of `O=C(CCl)N1CCOCC1` [compound 22], the “isoTOP-ABPP ratio (reactivity profile), Q15084_C55” value (PDIA6 C55 (Q15084); 500 μm in-vitro ramos) is reported as 1.6, the “isoTOP-ABPP ratio (reactivity profile), Q15084_C55” value (PDIA6 C55 (Q15084); 500 μm in-vitro ramos_231) is reported as 2.1 and the “isoTOP-ABPP ratio (reactivity profile), P00813_C75” value (ADA C75 (P00813)) is reported as 1.3.

`CC(Cl)C(=O)Nc1cc(C(F)(F)F)cc(C(F)(F)F)c1` (centres unmarked) [compound 25] was tested, and the “isoTOP-ABPP ratio (reactivity profile), Q16822_C306” value (PCK2 C306 (Q16822); 500 μm in-vitro ramos_231) was 0.8 and the “isoTOP-ABPP ratio (reactivity profile), Q15084_C55” value (PDIA6 C55 (Q15084); 500 μm in-vitro ramos_231) was 1.0.

`CC(Br)C(=O)Nc1cc(C(F)(F)F)cc(C(F)(F)F)c1` (centres unmarked) [compound 24] was tested, and the “isoTOP-ABPP ratio (reactivity profile), Q15084_C55” value (PDIA6 C55 (Q15084); 500 μm in-vitro ramos) was 1.3 and the “isoTOP-ABPP ratio (reactivity profile), P00813_C75” value (ADA C75 (P00813)) was 1.2.

For `CNS(=O)(=O)C=Cc1ccc2c(ccn2Cc2ccccc2)c1` [compound 6], the “isoTOP-ABPP ratio Q15084_C55” value (PDIA6 C55 (Q15084); invitro, 231) was 1.0.

With `O=C(CCl)NC12CC3CC(CC(C3)C1)C2` [compound 21] the “isoTOP-ABPP ratio (reactivity profile), Q16822_C306” value (PCK2 C306 (Q16822); 500 μm in-vitro ramos) was 2.0, the “isoTOP-ABPP ratio (reactivity profile), Q16822_C306” value (PCK2 C306 (Q16822); 500 μm in-vitro ramos_231) was 1.2 and the “isoTOP-ABPP ratio (reactivity profile), Q15084_C55” value (PDIA6 C55 (Q15084); 500 μm in-vitro ramos) was 2.1. For the same molecule, the “isoTOP-ABPP ratio (reactivity profile), Q15084_C55” value (PDIA6 C55 (Q15084); 500 μm in-vitro ramos_231) was 1.1 and the “isoTOP-ABPP ratio (reactivity profile), P00813_C75” value (ADA C75 (P00813)) was 1.3.

In the case of `O=C(CCl)N1CCc2cc(Br)ccc21` [compound 50], the “isoTOP-ABPP reactivity profile ratio, Q16822_C306” value (PCK2 C306 (Q16822); in-vitro_ramos_231) is reported as 2.7 and the “isoTOP-ABPP reactivity profile ratio, Q15084_C55” value (PDIA6 C55 (Q15084); in-vitro_ramos_231) is reported as 1.3.

In the case of `N#CC(=Cc1ccc(-c2ccccc2Cl)o1)C(N)=O` [compound 42], the “isoTOP-ABPP reactivity profile ratio, Q16822_C306” value (PCK2 C306 (Q16822); in-vitro_ramos) is reported as 0.8, the “isoTOP-ABPP reactivity profile ratio, Q15084_C55” value (PDIA6 C55 (Q15084); in-vitro_ramos) is reported as 0.9 and the “isoTOP-ABPP reactivity profile ratio, P00813_C75” value (ADA C75 (P00813); 500 μm, in-vitro_ramos) is reported as 0.8.
